Source: PubChem BioAssay (NCI)
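Briefly, cells in 96-well plates were exposed to five compound concentrations for 48 h, and endpoints were estimated by linear interpolation. The concentration for 50% growth inhibition is given as GI50. TGI: total growth inhibition.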

Tests used:
Assay in all cases: DTP human tumour cell line panel, 48 h
DU-145 prostate = system: DU-145 prostate
K-562 leukemia = system: K-562 leukemia
NCI-H522 lung = system: NCI-H522 lung
OVCAR-5 ovarian = system: OVCAR-5 ovarian
KM12 colon = system: KM12 colon
MOLT-4 leukemia = system: MOLT-4 leukemia
HT29 colon = system: HT29 colon
U251 CNS = system: U251 CNS
MDA-MB-435 = system: MDA-MB-435
SF-268 CNS = system: SF-268 CNS
HOP-62 NSCLC = system: HOP-62 NSCLC
SF-539 CNS = system: SF-539 CNS
SNB-19 CNS = system: SNB-19 CNS
HCT-116 colon = system: HCT-116 colon
HCC-2998 colon = system: HCC-2998 colon
T-47D breast = system: T-47D breast
HS 578T breast = system: HS 578T breast
RPMI-8226 leukemia = system: RPMI-8226 leukemia
OVCAR-3 ovarian = system: OVCAR-3 ovarian
HOP-92 NSCLC = system: HOP-92 NSCLC
CCRF-CEM leukemia = system: CCRF-CEM leukemia
SN12C renal = system: SN12C renal
UO-31 renal = system: UO-31 renal
SF-295 CNS = system: SF-295 CNS
CAKI-1 renal = system: CAKI-1 renal
HL-60(TB) leukemia = system: HL-60(TB) leukemia
MDA-MB-231 breast = system: MDA-MB-231 breast
TK-10 renal = system: TK-10 renal
NCI/ADR-RES ovarian = system: NCI/ADR-RES ovarian
OVCAR-4 ovarian = system: OVCAR-4 ovarian
PC-3 prostate = system: PC-3 prostate
A498 renal = system: A498 renal
NCI-H460 lung = system: NCI-H460 lung
SW-620 colon = system: SW-620 colon
SK-MEL-2 melanoma = system: SK-MEL-2 melanoma
EKVX NSCLC = system: EKVX NSCLC
LOX IMVI melanoma = system: LOX IMVI melanoma
NCI-H226 lung = system: NCI-H226 lung
ACHN renal = system: ACHN renal
IGROV1 ovarian = system: IGROV1 ovarian
BT-549 breast = system: BT-549 breast
SK-MEL-5 melanoma = system: SK-MEL-5 melanoma
RXF 393 renal = system: RXF 393 renal
MCF7 breast = system: MCF7 breast
SK-OV-3 ovarian = system: SK-OV-3 ovarian
A549 NSCLC = system: A549 NSCLC
SR leukemia = system: SR leukemia
OVCAR-8 ovarian = system: OVCAR-8 ovarian
NCI-H23 lung = system: NCI-H23 lung
COLO 205 colon = system: COLO 205 colon
MDA-MB-468 breast = system: MDA-MB-468 breast
SK-MEL-28 melanoma = system: SK-MEL-28 melanoma
HCT-15 colon = system: HCT-15 colon
MALME-3M melanoma = system: MALME-3M melanoma
UACC-257 melanoma = system: UACC-257 melanoma
UACC-62 melanoma = system: UACC-62 melanoma
M14 melanoma = system: M14 melanoma
786-0 renal = system: 786-0 renal

SMILES: CC(=O)Nc1ccc(-n2cnc3cc(-c4ccc(O)cc4)ccc32)cc1C(F)(F)F
- GI50 (DU-145 prostate): 12.2 µM
- TGI (DU-145 prostate): 46.9 µM
- GI50 (K-562 leukemia): 4.53 µM
- TGI (K-562 leukemia): > 100 µM
- GI50 (NCI-H522 lung): 1600 nM
- TGI (NCI-H522 lung): 4.73 µM
- GI50 (OVCAR-5 ovarian): 12.2 µM
- TGI (OVCAR-5 ovarian): 34.4 µM
- GI50 (KM12 colon): 3.93 µM
- TGI (KM12 colon): 50.7 µM
- GI50 (MOLT-4 leukemia): 4.3 µM
- TGI (MOLT-4 leukemia): > 100 µM
- GI50 (HT29 colon): 6.03 µM
- TGI (HT29 colon): > 100 µM
- GI50 (U251 CNS): 4.99 µM
- TGI (U251 CNS): 32.4 µM
- GI50 (MDA-MB-435): 2210 nM
- TGI (MDA-MB-435): 6.17 µM
- GI50 (SF-268 CNS): 7.57 µM
- TGI (SF-268 CNS): 84.4 µM
- GI50 (HOP-62 NSCLC): 8.41 µM
- TGI (HOP-62 NSCLC): 30 µM
- GI50 (SF-539 CNS): 6.25 µM
- TGI (SF-539 CNS): 46.7 µM
- GI50 (SNB-19 CNS): 14 µM
- TGI (SNB-19 CNS): > 100 µM
- GI50 (HCT-116 colon): 6.86 µM
- TGI (HCT-116 colon): > 100 µM
- GI50 (HCC-2998 colon): 5.31 µM
- TGI (HCC-2998 colon): 26.8 µM
- GI50 (T-47D breast): 4.73 µM
- TGI (T-47D breast): 43.5 µM
- GI50 (HS 578T breast): 15.3 µM
- TGI (HS 578T breast): 98.7 µM
- GI50 (RPMI-8226 leukemia): 4.73 µM
- TGI (RPMI-8226 leukemia): 27.6 µM
- GI50 (OVCAR-3 ovarian): 15.7 µM
- TGI (OVCAR-3 ovarian): > 100 µM
- GI50 (HOP-92 NSCLC): 11.6 µM
- TGI (HOP-92 NSCLC): 29.3 µM
- GI50 (CCRF-CEM leukemia): 6.65 µM
- TGI (CCRF-CEM leukemia): > 100 µM
- GI50 (SN12C renal): 4.26 µM
- TGI (SN12C renal): 34.5 µM
- GI50 (UO-31 renal): 4.84 µM
- TGI (UO-31 renal): 21.1 µM
- GI50 (SF-295 CNS): 5.47 µM
- TGI (SF-295 CNS): 27.5 µM
- GI50 (CAKI-1 renal): 8.34 µM
- TGI (CAKI-1 renal): 42 µM
- GI50 (HL-60(TB) leukemia): 2900 nM
- TGI (HL-60(TB) leukemia): 13.5 µM
- GI50 (MDA-MB-231 breast): 10 µM
- TGI (MDA-MB-231 breast): 38.2 µM
- GI50 (TK-10 renal): 14.8 µM
- TGI (TK-10 renal): 34.3 µM
- GI50 (NCI/ADR-RES ovarian): 2250 nM
- TGI (NCI/ADR-RES ovarian): 7.05 µM
- GI50 (OVCAR-4 ovarian): 24.1 µM
- TGI (OVCAR-4 ovarian): > 100 µM
- GI50 (PC-3 prostate): 8.15 µM
- TGI (PC-3 prostate): 39.5 µM
- GI50 (A498 renal): 25.6 µM
- TGI (A498 renal): 80.5 µM
- GI50 (NCI-H460 lung): 4.81 µM
- TGI (NCI-H460 lung): > 100 µM
- GI50 (SW-620 colon): 6.29 µM
- TGI (SW-620 colon): > 100 µM
- GI50 (SK-MEL-2 melanoma): 2820 nM
- TGI (SK-MEL-2 melanoma): 9.73 µM
- GI50 (EKVX NSCLC): 9.92 µM
- TGI (EKVX NSCLC): 33.8 µM
- GI50 (LOX IMVI melanoma): 5.71 µM
- TGI (LOX IMVI melanoma): 19.1 µM
- GI50 (NCI-H226 lung): 13.2 µM
- TGI (NCI-H226 lung): 58.6 µM
- GI50 (ACHN renal): 6.62 µM
- TGI (ACHN renal): 43.7 µM
- GI50 (IGROV1 ovarian): 14.5 µM
- TGI (IGROV1 ovarian): 87 µM
- GI50 (BT-549 breast): 4.76 µM
- TGI (BT-549 breast): 20.3 µM
- GI50 (SK-MEL-5 melanoma): 5.54 µM
- TGI (SK-MEL-5 melanoma): 32.9 µM
- GI50 (RXF 393 renal): 4.31 µM
- TGI (RXF 393 renal): 18.5 µM
- GI50 (MCF7 breast): 4.13 µM
- TGI (MCF7 breast): 48.5 µM
- GI50 (SK-OV-3 ovarian): 17 µM
- TGI (SK-OV-3 ovarian): 61.1 µM
- GI50 (A549 NSCLC): 5.34 µM
- TGI (A549 NSCLC): > 100 µM
- GI50 (SR leukemia): 2580 nM
- TGI (SR leukemia): 12.5 µM
- GI50 (OVCAR-8 ovarian): 6.6 µM
- TGI (OVCAR-8 ovarian): 68.1 µM
- GI50 (NCI-H23 lung): 6.2 µM
- TGI (NCI-H23 lung): 33.1 µM
- GI50 (COLO 205 colon): 11.2 µM
- TGI (COLO 205 colon): 42.3 µM
- GI50 (MDA-MB-468 breast): 225 nM
- TGI (MDA-MB-468 breast): 10.8 µM
- GI50 (SK-MEL-28 melanoma): 6.4 µM
- TGI (SK-MEL-28 melanoma): 35.3 µM
- GI50 (HCT-15 colon): 4.75 µM
- TGI (HCT-15 colon): > 100 µM
- GI50 (MALME-3M melanoma): 6.92 µM
- TGI (MALME-3M melanoma): 51.5 µM
- GI50 (UACC-257 melanoma): 10.6 µM
- TGI (UACC-257 melanoma): 39.3 µM
- GI50 (UACC-62 melanoma): 3.82 µM
- TGI (UACC-62 melanoma): 20.6 µM
- GI50 (M14 melanoma): 4.25 µM
- TGI (M14 melanoma): 30.6 µM
- GI50 (786-0 renal): 8.92 µM
- TGI (786-0 renal): 39.1 µM
